# From US8937080B2, “Pyrimidine substituted macrocyclic HCV inhibitors” (Medivir AB, priority 2007, dated 2015)
# pEC50, pKi: −log10 of the molar value. Like-named read-outs stand apart in the source and are kept apart here.
# What was measured:
# [1] = rcm bond, 14-membered ring, Hoveyda-Grubbs II, DCE, 16.0 h
# [2] = biological target: HCV NS3/4A protease complexes (full-length hepatitis C NS3 protease enzyme with NS4A cofactor) (Hepatitis C virus genotype 1a, UniProt P27958); test: Inhibition assay (enzymatic assay, depsipeptide substrate hydrolysis); format: biochemical; details: enzyme 1 nM, 25 μM NS4A cofactor, 0.5 μM substrate, 30° C., competitive inhibition model
# Sequence of HCV NS3/4A protease complexes (full-length hepatitis C NS3 protease enzyme with NS4A cofactor) (P27958 1027-1657, other chains not shown): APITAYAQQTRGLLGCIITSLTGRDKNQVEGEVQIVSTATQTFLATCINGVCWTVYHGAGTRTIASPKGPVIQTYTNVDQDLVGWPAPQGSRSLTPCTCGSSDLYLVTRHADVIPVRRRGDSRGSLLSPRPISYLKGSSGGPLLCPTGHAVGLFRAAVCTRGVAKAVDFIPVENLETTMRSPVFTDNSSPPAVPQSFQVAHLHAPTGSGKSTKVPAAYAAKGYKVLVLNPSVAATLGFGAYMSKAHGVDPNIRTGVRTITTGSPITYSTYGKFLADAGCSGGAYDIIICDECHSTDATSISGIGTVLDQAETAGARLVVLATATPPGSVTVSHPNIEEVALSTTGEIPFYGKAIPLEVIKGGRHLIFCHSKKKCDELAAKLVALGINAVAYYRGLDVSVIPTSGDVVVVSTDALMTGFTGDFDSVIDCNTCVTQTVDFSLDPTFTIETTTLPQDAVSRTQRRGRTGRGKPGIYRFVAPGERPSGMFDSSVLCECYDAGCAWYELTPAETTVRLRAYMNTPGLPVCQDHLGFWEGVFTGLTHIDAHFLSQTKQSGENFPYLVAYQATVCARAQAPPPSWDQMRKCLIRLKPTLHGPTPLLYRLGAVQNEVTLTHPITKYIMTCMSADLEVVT
# Description: The aim of this in vitro assay is to measure the inhibition of HCV NS3/4A protease complexes by the compounds of the present invention. This assay provides an indication of how effective compounds of the present invention would be in inhibiting HCV NS3/4A proteolytic activity.
# The inhibition of full-length hepatitis C NS3 protease enzyme was measured essentially as described in Poliakov, 2002 Prot Expression & Purification 25 363 371. Briefly, the hydrolysis of a depsipeptide substrate, Ac-DED(Edans)EEAbuψ[COO]ASK(Dabcyl)-NH2 (AnaSpec, San José, USA), was measured spectrofluorometrically in the presence of a peptide cofactor, KKGSVVIVGRIVLSGK (Åke Engström, Department of Medical Biochemistry and Microbiology, Uppsala University, Sweden). [Landro, 1997 #Biochem 36 9340-9348]. The enzyme (1 nM) was incubated in 50 mM HEPES, pH 7.5, 10 mM DTT, 40% glycerol, 0.1% n-octyl-D-glucoside, with 25 μM NS4A cofactor and inhibitor at 30° C. for 10 min, whereupon the reaction was initiated by addition of 0.5 μM substrate. Inhibitors were dissolved in DMSO, sonicated for 30 sec. and vortexed. The solutions were stored at −20° C. between measurements.
# The final concentration of DMSO in the assay sample was adjusted to 3.3%. The rate of hydrolysis was corrected for inner filter effects according to published procedures.
# [Liu, 1999 Analytical Biochemistry 267 331-335]. Ki values were estimated by non-linear regression analysis (GraFit, Erithacus Software, Staines, MX, UK), using a model for competitive inhibition and a fixed value for Km (0.15 μM). A minimum of two replicates was performed for all measurements.
# [3] = test system: HCV replicons (wild type NS3-NS5B regions of HCV type 1b) in Huh-7 luc/neo cells; test: Replicon assay (Huh-Luc cells, luciferase readout); format: cell-based; details: Hepatitis C virus, Huh-7, 72 h, incubation of three days, luciferase activity
# Text: The compounds of formula (I) were examined for activity in the inhibition of HCV RNA replication in a cellular assay. […] The cellular assay was based on a bicistronic expression construct, as described by Lohmann et al. (1999) Science vol. 285 pp. 110-113 with modifications described by Krieger et al. (2001) Journal of Virology 75: 4614-4624, in a multi-target screening strategy. In essence, the method was as follows.
# The assay utilized the stably transfected cell line Huh-7 luc/neo (hereafter referred to as Huh-Luc). This cell line harbors an RNA encoding a bicistronic expression construct comprising the wild type NS3-NS5B regions of HCV type 1b translated from an Internal Ribosome Entry Site (IRES) from encephalomyocarditis virus (EMCV), preceded by a reporter portion (FfL-luciferase), and a selectable marker portion (neo^R, neomycine phosphotransferase). The construct is bordered by 5′ and 3′ NTRs (non-translated regions) from HCV type 1b. Continued culture of the replicon cells in the presence of G418 (neo^R) is dependent on the replication of the HCV RNA. The stably transfected replicon cells that express HCV RNA, which replicates autonomously and to high levels, encoding inter alia luciferase, are used for screening the antiviral compounds.
# The replicon cells were plated in 384 well plates in the presence of the test and control compounds which were added in various concentrations. Following an incubation of three days, HCV replication was measured by assaying luciferase activity (using standard luciferase assay substrates and reagents and a Perkin Elmer ViewLux™ ultraHTS microplate imager). Replicon cells in the control cultures have high luciferase expression in the absence of any inhibitor. The inhibitory activity of the compound on luciferase activity was monitored on the Huh-Luc cells, enabling a dose-response curve for each test compound. EC50 values were then calculated, which value represents the amount of the compound required to decrease by 50% the level of detected luciferase activity, or more specifically, the ability of the genetically linked HCV replicon RNA to replicate.
SMILES,"ring closure, isolated yield ([1]; from C=CCCCCN(C)C(=O)C1CC(Oc2cc(-c3ccccc3)nc(-c3ccccc3)n2)CC1C(=O)NC1(C(=O)OCC)CC1C=C, 1.66 mM) [%]","ring closure, isolated yield ([1]; from C=CCCCCN(C)C(=O)C1CC(Oc2cc(-c3ccccc3)nc(OC)n2)CC1C(=O)NC1(C(=O)OCC)CC1C=C, 1.83 mM) [%]",pKi [2],pEC50 [3]
CCOC(=O)C12CC1C=CCCCCN(C)C(=O)C1CC(Oc3cc(-c4ccccc4)nc(-c4ccccc4)n3)CC1C(=O)N2 (centres unmarked),76,,,
CCOC(=O)C12CC1C=CCCCCN(C)C(=O)C1CC(Oc3cc(-c4ccccc4)nc(OC)n3)CC1C(=O)N2 (centres unmarked),,70,,
"COc1nc(OC2CC3C(=O)NC4(C(=O)NS(=O)(=O)C5CC5)CC4C=CCCCCN(C)C(=O)N3C2)cc(-c2ccccc2)n1 (centres unmarked) [Example 1, Cyclopropanesulfonic acid [17-(2-methoxy-6-phenyl-pyrimidin-4-yloxy)-13-methyl-2,14-dioxo-3,13,15-triaza-tricyclo[13.3.0.0*4,6*]octadec-7-ene-4-carbonyl]-amide]",,,8.31 to 10.00,5.00 to 6.00
"COc1nc(OC2CC3C(=O)NC4(C(=O)NS(=O)(=O)C5CC5)CC4C=CCCCCCNC(=O)N3C2)cc(-c2ccccc2)n1 (centres unmarked) [Example 2, Cyclopropanesulfonic acid [18-(2-methoxy-6-phenylpyrimidin-4-yloxy)-2,15-dioxo-3,14,16-triaza-tricyclo[14.3.0.0*4,6*]nonadec-7-ene-4-carbonyl]-amide]",,,8.31 to 10.00,5.00 to 6.00
"COc1nc(OC2CC3C(=O)NC4(C(=O)NS(=O)(=O)C5CC5)CC4C=CCCCCN(C)C(=O)C3C2)cc(C(C)(C)C)n1 (centres unmarked) [Example 3, Cyclopropanesulfonic acid [17-(6-tert-butyl-2-methoxypyrimidin-4-yloxy)-13-methyl-2,14-dioxo-3,13-diaza-tricyclo[13.3.0.0*4,6*]octadec-7-ene-4-carbonyl]amide]",,,7.00 to 8.30,5.00 to 6.00
"COc1nc(O[C@@H]2C[C@H]3C(=O)N[C@]4(C(=O)NS(=O)(=O)C5(C)CC5)C[C@H]4/C=C\CCCCCNC(=O)N3C2)cc(-c2ccccc2)n1 [Example 4, 1-Methyl-cyclopropanesulfonic acid [18-(2-methoxy-6-phenylpyrimidin-4-yloxy)-2,15-dioxo-3,14,16-triaza-tricyclo[14.3.0.0*4,6*]nonadec-7-ene-4-carbonyl]-amide]",,,8.31 to 10.00,6.00 to 6.70
"COc1nc(O[C@@H]2C[C@H]3C(=O)N[C@]4(C(=O)NS(=O)(=O)C5(C)CC5)C[C@H]4/C=C\CCCCN(C)C(=O)[C@@H]3C2)cc(C(C)(C)C)n1 [Example 5, 1-Methyl-cyclopropanesulfonic acid [17-(6-tert-butyl-2-methoxy-pyrimidin-4-yloxy)-13-methyl-2,14-dioxo-3,13-diaza-tricyclo[13.3.0.0*4,6*]octadec-7-ene-4-carbonyl]-amide]",,,6.00 to 7.00,< 5.00
"COc1cc(OC2CC3C(=O)NC4(C(=O)NS(=O)(=O)C5CC5)CC4C=CCCCCCNC(=O)N3C2)nc(-c2ccccc2)n1 (centres unmarked) [Example 6, Cyclopropanesulfonic acid [18-(6-methoxy-2-phenylpyrimidin-4-yloxy)-2,15-dioxo-3,14,16-triaza-tricyclo[14.3.0.0*4,6*]nonadec-7-ene-4-carbonyl]-amide]",,,8.31 to 10.00,6.70 to 9.30
"COc1cc(OC2CC3C(=O)NC4(C(=O)NS(=O)(=O)C5(C)CC5)CC4C=CCCCCN(C)C(=O)C3C2)nc(-c2ccccc2)n1 (centres unmarked) [Example 7, 1-Methyl-cyclopropanesulfonic acid [17-(6-methoxy-2-phenylpyrimidin-4-yloxy)-13-methyl-2,14-dioxo-3,13-diaza-tricyclo[13.3.0.0*4,6*]octadec-7-ene-4-carbonyl]-amide]",,,8.31 to 10.00,6.70 to 9.30
"COc1cc(O[C@@H]2C[C@H]3C(=O)N[C@]4(C(=O)NS(=O)(=O)c5cccs5)C[C@H]4/C=C\CCCCN(C)C(=O)[C@@H]3C2)nc(-c2ccccc2)n1 [Example 9, Thiophene-2-sulfonic acid [17-(6-methoxy-2-phenylpyrimidin-4-yloxy)-13-methyl-2,14-dioxo-3,13-diaza-tricyclo[13.3.0.0*4,6*]octadec-7-ene-4-carbonyl]-amide]",,,,5.00 to 6.00
"CN1CCCC/C=C\[C@@H]2C[C@@]2(C(=O)NS(=O)(=O)C2CC2)NC(=O)[C@@H]2C[C@@H](Oc3ccnc(N4CCOCC4)n3)C[C@H]2C1=O [Example 11, Cyclopropanesulfonic acid [13-methyl-17-(2-morpholin-4-yl-pyrimidin-4-yloxy)-2,14-dioxo-3,13-diaza-tricyclo[13.3.0.0*4,6*]octadec-7-ene-4-carbonyl]-amide]",,,7.00 to 8.30,< 5.00
"CC(C)Nc1nccc(O[C@@H]2C[C@H]3C(=O)N[C@]4(C(=O)NS(=O)(=O)C5CC5)C[C@H]4/C=C\CCCCN(C)C(=O)[C@@H]3C2)n1 [Example 12, Cyclopropanesulfonic acid [17-(2-isopropylaminopyrimidin-4-yloxy)-13-methyl-2,14-dioxo-3,13-diaza-tricyclo[13.3.0.0*4,6*]octadec-7-ene-4-carbonyl]-amide]",,,7.00 to 8.30,< 5.00
"COc1nc(O[C@@H]2C[C@H]3C(=O)N[C@]4(C(=O)NS(=O)(=O)C5(C)CC5)C[C@H]4/C=C\CCCCN(C)C(=O)[C@@H]3C2)cc(-c2ccccc2)n1 [Example 14, 1-Methyl-cyclopropanesulfonic acid [17-(2-methoxy-6-phenyl-pyrimidin-4-yloxy)-13-methyl-2,14-dioxo-3,13-diaza-tricyclo[13.3.0.0*4,6*]octadec-7-ene-4-carbonyl]-amide]",,,7.00 to 8.30,6.00 to 6.70
"COc1ccc(-c2cc(OC3CC4C(=O)NC5(C(=O)NS(=O)(=O)C6CC6)CC5C=CCCCCN(C)C(=O)C4C3)nc(OC)n2)cc1 (centres unmarked) [Example 16, Cyclopropanesulfonic acid {17-[2-methoxy-6-(4-methoxy-phenyl)-pyrimidin-4-yloxy]-13-methyl-2,14-dioxo-3,13-diaza-tricyclo[13.3.0.0*4,6*]octadec-7-ene-4-carbonyl}-amide]",,,8.31 to 10.00,6.00 to 6.70
"CN1CCCCC=CC2CC2(C(=O)NS(=O)(=O)C2CC2)NC(=O)C2CC(Oc3cc(-c4ccccc4)nc(-c4ccccc4)n3)CC2C1=O (centres unmarked) [Example 17, Cyclopropanesulfonic acid [17-(2,6-diphenyl-pyrimidin-4-yloxy)-13-methyl-2,14-dioxo-3,13-diaza-tricyclo[13.3.0.0*4,6*]octadec-7-ene-4-carbonyl]-amide]",,,8.31 to 10.00,6.00 to 6.70
"COc1cccc(-c2cc(O[C@@H]3C[C@H]4C(=O)N[C@]5(C(=O)NS(=O)(=O)C6CC6)C[C@H]5/C=C\CCCCN(C)C(=O)[C@@H]4C3)nc(OC)n2)c1 [Example 24, Cyclopropanesulfonic acid {17-[2-methoxy-6-(3-methoxy-phenyl)-pyrimidin-4-yloxy]-13-methyl-2,14-dioxo-3,13-diaza-tricyclo[13.3.0.0*4,6*]octadec-7-ene-4-carbonyl}-amide]",,,,6.70 to 9.30
"COc1cccc(-c2cc(O[C@@H]3C[C@H]4C(=O)N[C@]5(C(=O)NS(=O)(=O)C6(C)CC6)C[C@H]5/C=C\CCCCN(C)C(=O)[C@@H]4C3)nc(OC)n2)c1 [Example 25, 1-Methyl-cyclopropanesulfonic acid {17-[2-methoxy-6-(3-methoxy-phenyl)-pyrimidin-4-yloxy]-13-methyl-2,14-dioxo-3,13-diaza-tricyclo[13.3.0.0*4,6*]octadec-7-ene-4-carbonyl}-amide]",,,,6.70 to 9.30
